Test results reported in patent publication US5157041A, “Amino acid derivatives” (Hoffmann-La Roche Inc., priority 1988, dated 1992).
Where two headings read alike, the source gives them in different places.

Target: T1, HIV protease (Human immunodeficiency virus type 1 group M subtype B, UniProt P04585)
T1 construct: HIV protease was expressed in E. coli; made in house; host or cells: E. coli
Assay: biochemical
Settings: read-out: I50 (concentration of test compound required to give 50% inhibition)
Method: HIV protease was expressed in E. coli and partially purified from soluble extracts of the bacterium by ammonium sulphate fractionation (0-30%). Protease activity was assayed using the protected hexapeptide succinyl-Ser-Leu-Asn-Tyr-Pro-Ile isobutylamide as the substrate. Cleavage of the substrate was quantified by measuring the production of H-Pro-Ile isobutylamide by the spectrophotometric assay of N-terminal proline.
1.25 mM of substrate were dissolved in 125 mM of citrate buffer (pH 5.5) containing 0.125 mg/ml of Tween 20. 10 μl of a solution of various concentrations of the test compound (dissolved in methanol or […]) and 10 μl of protease were added to 80 μl of the above buffered substrate. Digestion was carried out at 37° C. for a fixed period of time and was terminated by the addition of 1 ml of colour reagent [30 μg/ml of isatin and 1.5 mg/ml of 2-(4-chlorobenzoyl)benzoicacid in 10% acetone in ethanol (vol./vol.)]. The solution was heated in a water bath and then the pigmented residues were re-dissolved in 1 ml of 1% pyrogallol in 33% water in acetone (wt./vol./vol.). The optical density of the solution was measured spectrophotometrically at 599 nm.

[1] = partially purified HIV protease expressed in E. coli, substrate succinyl-Ser-Leu-Asn-Tyr-Pro-Ile isobutylamide, citrate buffer pH 5.5, 37° C.

IC50 [1] | SMILES | IC50
0.75 µM | CC[C@H](C)[C@H](NC(=O)[C@@H]1CCCN1CC(O)[C@H](Cc1ccccc1)NC(=O)[C@H](CC(N)=O)NC(=O)[C@H](CC(C)C)NC(=O)OCc1ccccc1)C(=O)NCC(C)C (mixture of isomers) [Compound E, N^2-[N-[3(S)-[[N-[N-(benzyloxycarbonyl)-L-leucyl]-L-asparaginyl]amino]-2(R and S)-hydroxy-4-phenylbutyl]-L-prolyl]-N^1-isobutyl-L-isoleucinamide] | –
0.13 µM | CC[C@H](C)[C@H](NC(=O)[C@@H]1CCCN1CC(O)[C@H](Cc1ccccc1)NC(=O)[C@H](CC(N)=O)NC(=O)OCc1ccccc1)C(=O)NCC(C)C (single isomer, unassigned) [Compound D] | –
0.08 µM | CC(C)CNC(=O)[C@@H]1CCCN1CC(O)[C@H](Cc1ccccc1)NC(=O)[C@H](CC(N)=O)NC(=O)OCc1ccccc1 (single isomer, unassigned) [Compound G, N^2-[3(S)-[[N-(benzyloxycarbonyl)-L-asparaginyl]amino]-2(R or S)-hydroxy-4-phenylbutyl]-N^1-isobutyl-L-prolinamide] | –
0.01 µM | CC(C)(C)OC(=O)[C@@H]1CCCN1C[C@@H](O)[C@H](Cc1ccccc1)NC(=O)[C@H](CC(N)=O)NC(=O)c1ccc2ccccc2c1 [Compound H, N-[2(R)-hydroxy-3(S)-[[N-(2-naphthoyl)-L-asparaginyl]amino]-4-phenylbutyl]-L-proline tert.butyl ester] | –

Second part, the molecule before the results:

SMILES | IC50 [1] | IC50
CC(C)(C)NC(=O)C1Cc2ccccc2CN1C[C@@H](O)[C@H](Cc1ccccc1)NC(=O)[C@H](CC(N)=O)NC(=O)OCc1ccccc1 (mixture of isomers) [Compound I, 2-[3(S)-[[N-(benzyloxycarbonyl)-L-asparaginyl]amino]-2(R)-hydroxy-4-phenylbutyl]-N-tert.butyl-1,2,3,4-tetrahydro-3(R,S)-isoquinolinecarboxamide] | 0.085 µM | –
CC(C)CCNC(=O)[C@@H]1CCCN1CC(O)[C@H](Cc1ccccc1)NC(=O)[C@H](CC(N)=O)NC(=O)OCc1ccccc1 (single isomer, unassigned) [Compound F] | 0.75 µM | –
CC(C)(C)OC(=O)[C@@H]1CCCN1CC(=O)[C@H](Cc1ccccc1)NC(=O)[C@H](CC(N)=O)NC(=O)OCc1ccccc1 [Compound A, N-[N-[[N-(benzyloxycarbonyl)-L-asparaginyl]-L-phenylalanyl]methyl]-L-proline tert.butyl ester] | 0.87 µM | –
CC(C)(C)OC(=O)[C@@H]1CCCN1C[C@@H](O)[C@H](Cc1ccccc1)NC(=O)[C@H](CC(N)=O)NC(=O)OCc1ccccc1 [Compound B, N-[3(S)-[[N-(benzyloxycarbonyl)-L-asparaginyl]amino]-2(R)-hydroxy-4-phenylbutyl]-L-proline tert.butyl ester] | – | 0.15 µM
CC(C)(C)OC(=O)[C@@H]1CCCN1C[C@H](O)[C@H](Cc1ccccc1)NC(=O)[C@H](CC(N)=O)NC(=O)OCc1ccccc1 [Compound C, N-[3(S)-[[N-(benzyloxycarbonyl)-L-asparaginyl]amino]-2(S)-hydroxy-4-phenylbutyl]-L-proline tert.butyl ester] | – | 0.3 µM
